Laboratory results published in paper PMC11731290, “Highly Active Oligoethylene Glycol Pleuromutilins via Systematic Linker Synthesis/One-Pot Attachment and a Microscale Solubility Method” (The Journal of Organic Chemistry, 2024).
In brackets after ≈: the same amount, converted by molar mass. Where two headings read alike, the source gives them in different places.

Key:
E. coli MC1061 = experiment: Broth microdilution MIC, E. coli MC1061; format: cell-based; conditions: Escherichia coli
[1] = system: methicillin-resistant S. aureus (MRSA) ATCC 43300; experiment: Broth microdilution MIC, MRSA 43300; format: cell-based, Staphylococcus aureus; conditions: for MIC: Staphylococcus aureus, read-out: Minimum inhibitory concentration, MRSA 43300; for improvement in activity relative to pleuromutilin (1): Gram-positive bacteria (S. aureus strains), MIC ratio to 1
E. coli ΔTolC = experiment: Broth microdilution MIC, E. coli ΔTolC; format: cell-based; conditions: Escherichia coli, read-out: Minimum inhibitory concentration, E. coli ΔTolC
[2] = system: vancomycin-resistant Enterococcus (VRE); experiment: Broth microdilution MIC, VRE; format: cell-based; conditions: for MIC: Enterococcus, VRE, 24 h, read-out: Minimum inhibitory concentration, VRE
[3] = Microscale solubility by optical density (plate reader); conditions: 37 °C, aqueous buffer, kinetic from dmso stock
S. aureus 6538P = experiment: Broth microdilution MIC, S. aureus 6538P; format: cell-based; conditions: Staphylococcus aureus, read-out: Minimum inhibitory concentration, S. aureus 6538P
[4] = design: method as in earlier work; conditions: cited from earlier work
[5] = MC1061, broth microdilution, 37 °C, 16–18 h, MIC = lowest concentration inhibiting >90% of growth, read-out: Minimum inhibitory concentration, E. coli MC1061
[6] = broth microdilution, 37 °C, 16–18 h, MIC = lowest concentration inhibiting >90% of growth
[7] = broth microdilution, 37 °C, MIC = lowest concentration inhibiting >90% of growth

Compound	MIC (E. coli MC1061; [5])	MIC [1, 6]	MIC (E. coli ΔTolC)	MIC [2, 7]	solubility at 1 day [3]	MIC (S. aureus 6538P)	MIC (S. aureus 6538P; [6])	improvement in activity relative to pleuromutilin (1) [1]	MIC [1]	potency compared to 1, VRE ([2]; MIC ratio to 1)	MIC (E. coli MC1061; MC1061, read-out: Minimum inhibitory concentration, E. coli MC1061)	water solubility [4]	MIC [2]
C=C[C@]1(C)C[C@@H](OC(=O)CSCCOCCOCCOCCOCCOCCOCCOCCO)[C@]2(C)[C@H](C)CC[C@]3(CCC(=O)[C@H]32)[C@@H](C)[C@@H]1O [compound 48]	25 µM (≈ 18.7 µg/mL)	3.12 µM (≈ 2.33 µg/mL)	1.56 µM (≈ 1.17 µg/mL)	3.12 µM (≈ 2.33 µg/mL)	> 200 µM	1.56 µM (≈ 1.17 µg/mL)							
C=C[C@]1(C)C[C@@H](OC(=O)CSCCOCCOCCOCCOCCN=[N+]=[N-])[C@]2(C)[C@H](C)CC[C@]3(CCC(=O)[C@H]32)[C@@H](C)[C@@H]1O [compound 32]	25 µM (≈ 16 µg/mL)	0.781 µM (≈ 0.5 µg/mL)	0.391 µM (≈ 0.25 µg/mL)	3.12 µM (≈ 2 µg/mL)	100 to 200 µM (≈ 64 to 128 µg/mL)		0.781 µM (≈ 0.5 µg/mL)						
C=C[C@]1(C)C[C@@H](OC(=O)CSCCO)[C@]2(C)[C@H](C)CC[C@]3(CCC(=O)[C@H]32)[C@@H](C)[C@@H]1O [compound 25]	3.12 µM (≈ 1.37 µg/mL)	0.781 µM (≈ 0.343 µg/mL)	0.391 µM (≈ 0.172 µg/mL)	3.12 µM (≈ 1.37 µg/mL)	> 200 µM		0.781 µM (≈ 0.343 µg/mL)						
C=C[C@]1(C)C[C@@H](OC(=O)CSCCOCCN=[N+]=[N-])[C@]2(C)[C@H](C)CC[C@]3(CCC(=O)[C@H]32)[C@@H](C)[C@@H]1O [compound 29]	25 µM (≈ 12.7 µg/mL)		0.391 µM (≈ 0.199 µg/mL)	3.12 µM (≈ 1.58 µg/mL)	25 to 50 µM (≈ 12.7 to 25.4 µg/mL)		0.781 µM (≈ 0.397 µg/mL)	8 fold	0.391 µM (≈ 0.199 µg/mL)				
C=C[C@]1(C)C[C@@H](OC(=O)CSCCOCCOCCOCCOCCOCCO)[C@]2(C)[C@H](C)CC[C@]3(CCC(=O)[C@H]32)[C@@H](C)[C@@H]1O [compound 47]	25 µM (≈ 16.5 µg/mL)	1.56 µM (≈ 1.03 µg/mL)	0.781 µM (≈ 0.515 µg/mL)	3.12 µM (≈ 2.06 µg/mL)	> 200 µM	0.781 µM (≈ 0.515 µg/mL)							
C=C[C@]1(C)C[C@@H](OC(=O)CSCCOCCOCCOCCOCCO)[C@]2(C)[C@H](C)CC[C@]3(CCC(=O)[C@H]32)[C@@H](C)[C@@H]1O [compound 46]	12.5 µM (≈ 7.69 µg/mL)	1.56 µM (≈ 0.959 µg/mL)	0.781 µM (≈ 0.48 µg/mL)	3.12 µM (≈ 1.92 µg/mL)	> 200 µM	0.781 µM (≈ 0.48 µg/mL)							
C=C[C@]1(C)C[C@@H](OC(=O)CSCCOCCOCCOCCN=[N+]=[N-])[C@]2(C)[C@H](C)CC[C@]3(CCC(=O)[C@H]32)[C@@H](C)[C@@H]1O [compound 31]	50 µM (≈ 29.8 µg/mL)	0.781 µM (≈ 0.465 µg/mL)	0.391 µM (≈ 0.233 µg/mL)	3.12 µM (≈ 1.86 µg/mL)	100 to 200 µM (≈ 59.6 to 119 µg/mL)		0.781 µM (≈ 0.465 µg/mL)						
C=C[C@]1(C)C[C@@H](OC(=O)CSCCOCCOCCO)[C@]2(C)[C@H](C)CC[C@]3(CCC(=O)[C@H]32)[C@@H](C)[C@@H]1O [compound 44]	12.5 µM (≈ 6.58 µg/mL)	1.56 µM (≈ 0.822 µg/mL)	0.391 µM (≈ 0.206 µg/mL)	3.12 µM (≈ 1.64 µg/mL)	> 200 µM		0.781 µM (≈ 0.411 µg/mL)						
C=C[C@]1(C)C[C@@H](OC(=O)CSCCOCCOCCN=[N+]=[N-])[C@]2(C)[C@H](C)CC[C@]3(CCC(=O)[C@H]32)[C@@H](C)[C@@H]1O [compound 30]	25 µM (≈ 13.8 µg/mL)	0.781 µM (≈ 0.431 µg/mL)	0.391 µM (≈ 0.216 µg/mL)	3.12 µM (≈ 1.72 µg/mL)	50 to 100 µM (≈ 27.6 to 55.2 µg/mL)		0.781 µM (≈ 0.431 µg/mL)						
C=C[C@]1(C)C[C@@H](OC(=O)CSCCN=[N+]=[N-])[C@]2(C)[C@H](C)CC[C@]3(CCC(=O)[C@H]32)[C@@H](C)[C@@H]1O [compound 28]	12.5 µM (≈ 5.8 µg/mL)	0.391 µM (≈ 0.181 µg/mL)	0.195 µM (≈ 0.0904 µg/mL)	1.56 µM (≈ 0.723 µg/mL)	25 to 50 µM (≈ 11.6 to 23.2 µg/mL)		0.391 µM (≈ 0.181 µg/mL)	8 fold		8 fold			
C=C[C@]1(C)C[C@@H](OC(=O)CSCCOCCOCCOCCO)[C@]2(C)[C@H](C)CC[C@]3(CCC(=O)[C@H]32)[C@@H](C)[C@@H]1O [compound 45]	12.5 µM (≈ 7.13 µg/mL)	1.56 µM (≈ 0.89 µg/mL)	0.781 µM (≈ 0.446 µg/mL)	3.12 µM (≈ 1.78 µg/mL)	> 200 µM	0.781 µM (≈ 0.446 µg/mL)							
C=C[C@]1(C)C[C@@H](OC(=O)CSCCOCCO)[C@]2(C)[C@H](C)CC[C@]3(CCC(=O)[C@H]32)[C@@H](C)[C@@H]1O [compound 43]	6.25 µM (≈ 3.02 µg/mL)	0.781 µM (≈ 0.377 µg/mL)	0.391 µM (≈ 0.189 µg/mL)	3.12 µM (≈ 1.51 µg/mL)	> 200 µM		0.781 µM (≈ 0.377 µg/mL)						
C=C[C@]1(C)C[C@@H](OC(=O)CO)[C@]2(C)[C@H](C)CC[C@]3(CCC(=O)[C@H]32)[C@@H](C)[C@@H]1O [compound 1, Pleuromutilin]			3.12 µM (≈ 1.18 µg/mL)		50 to 100 µM (≈ 18.9 to 37.9 µg/mL)	3.12 µM (≈ 1.18 µg/mL)			3.12 µM (≈ 1.18 µg/mL)		3.12 µM (≈ 1.18 µg/mL)	20 µg/mL (≈ 52.8 µM)	12.5 µM (≈ 4.73 µg/mL)
